This is an account of results in patent US4966914A, “Oculoselective beta-blockers as antiglaucoma agents” (E. I. Du Pont de Nemours and Company, priority 1988, dated 1990).

The target in the assay is T1, ATRIA (Cavia porcellus, UniProt H0W3H1).
T1 construct: ATRIA; from tissue
As to the kind of experiment: In vitro potency (pA2), beta-blocking, atria. Format: cell-based. The settings on record: Table 3; atria; read-out: pA2 ATRIA (converted). The protocol: The in vitro potency (pA2), in vivo potency and duration of action (DOA) of the compounds of the present invention are recorded in Tables 2 to 4. These pharmacological activities were determined using the methods described in U.S. patent 4,582,855 issued Apr.

Each structure is given as a SMILES string.

T1 sequence (H0W3H1 1-470): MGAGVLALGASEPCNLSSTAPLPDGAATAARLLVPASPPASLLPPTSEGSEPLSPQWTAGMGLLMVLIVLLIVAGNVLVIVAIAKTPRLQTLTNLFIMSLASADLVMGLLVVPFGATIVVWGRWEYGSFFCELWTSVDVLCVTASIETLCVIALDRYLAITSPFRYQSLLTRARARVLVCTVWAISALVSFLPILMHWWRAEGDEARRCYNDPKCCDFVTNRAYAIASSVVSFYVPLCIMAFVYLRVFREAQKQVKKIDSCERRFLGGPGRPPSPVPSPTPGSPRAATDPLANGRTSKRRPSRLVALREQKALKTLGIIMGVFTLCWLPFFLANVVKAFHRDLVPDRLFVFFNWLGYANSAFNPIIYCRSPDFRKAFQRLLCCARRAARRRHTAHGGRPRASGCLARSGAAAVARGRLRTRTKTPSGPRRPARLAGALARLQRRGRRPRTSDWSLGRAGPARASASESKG

Take `CC(C)(CNC(=O)C1CCOC1)NCC(O)COC(=O)c1ccc(O)c(O)c1` (stereo not shown): the Kb was 1.26 nM.

Take `CC(C)C(=O)NCC(C)(C)NCC(O)COC(=O)c1cc(O)c(O)cc1N` (stereo not shown): the Kb was 79.4 nM.

For `COc1cc(O)c(O)cc1C(=O)OCC(O)CNC(C)(C)CNC(=O)C1CCCCC1` (stereo not shown), the Kb was 25.1 nM.

As for `CCC(=O)NCC(C)(C)NCC(O)COC(=O)c1cc(O)c(O)cc1C` (stereo not shown), the Kb was 10 nM.

Turning to `CCCC(=O)NCC(C)(C)NCC(O)COC(=O)c1cc(O)c(O)cc1C` (stereo not shown), the Kb was 6.31 nM.

For the compound `Cc1cc(O)c(O)cc1C(=O)OCC(O)CNC(C)(C)CNC(=O)C1CC1` (stereo not shown), the Kb was 20 nM.

Take `Cc1cc(O)c(O)cc1C(=O)OCC(O)CNC(C)(C)CNC(=O)C1CCC1` (stereo not shown): the Kb was 5.01 nM.

As for `Cc1cc(O)c(O)cc1C(=O)OCC(O)CNC(C)(C)CNC(=O)c1ccccc1` (stereo not shown), the Kb was 20 nM.

On to `Cc1cc(O)c(O)cc1C(=O)OCC(O)CNC(C)(C)CNC(=O)Cc1ccccc1` (stereo not shown), for which the Kb was 100 nM.

In the case of `COc1ccccc1C(=O)NCC(C)(C)NCC(O)COC(=O)c1cc(O)c(O)cc1C` (stereo not shown), the Kb is 398 nM.
